Assay results published in US20060089335A1, “Compositions and methods for enhancing cognitive function and synaptic plasticity” (priority 2003, published 2006).
Where “and” joins values, the source holds several entries; their conditions need not be identical. Identical values can stand only once.

Experiments:
NMDAR = assay: voltage-dependence of NMDAR Mg^2+ block, NMDA currents evoked by glutamate iontophoresis; format: cell-based, rat
From the text: Analysis of voltage-dependence of NMDAR Mg^2+ block. For studying the voltage-dependence of NMDAR Mg^2+ block, NMDA currents were evoked by local application of glutamate using the high-speed iontophoresis technique (Murnick et al., 2002). The current traces for each cell were normalized to their value at +40 mV membrane potential. The voltage dependency of NMDA currents was modeled using the Woodhull function (Woodhull, 1973). The NMDA channel conductance in the presence and absence of Mg^2+ was related according to the relationship: [formula] • where KMg is the voltage-independent affinity of Mg^2+ for the channel (0 mV membrane potential), δ is the electrical distance of the Mg^2+ binding site in the membrane field, E is membrane potential, and z is the valence of the blocking ion. RT/F was 25.4 mV (21° C.).
Although the biophysics of Mg^2+ block have been studied extensively (Mayer et al., 1984; Nowak et al., 1984; Jahr and Stevens, 1990), we wished to determine precisely the behavior of the Mg^2+ block at near-physiologic concentrations. […] We evoked NMDA currents by iontophoretic application of glutamate to a putative single bouton identified by FM 1-43 labeling and recorded under whole cell patch clamp in the presence of the AMPAR blocker, NBQX (10 μM). […] (Renger et al., 2001).

[1] = system: NMDA receptors at single spine; assay: calcium imaging and NMDA currents at single spines; format: cell-based, rat
[2] = target: NMDA receptors (NR2B-containing) (Rattus norvegicus, UniProt P35439+Q00960); assay: evoked NMDA currents ([…]), double-perforated patch; format: cell-based
Experimental: (§1) Electrophysiology. Dual whole cell perforated patch clamp recordings were made on two interconnected cultured hippocampal pyramidal neurons. Perforated patch pipettes were front-filled with a solution containing (in mM): CsOH, 127; D-gluconic acid, 127; CsCl, 4; HEPES, 10; NaCl, 8; EGTA, 0.4; pH was adjusted to 7.25 with CsOH, and then back-filled with the same solution containing […] amphotericin B (Sigma, St. Louis, Mo.). Extracellular solution contained (in mM): NaCl, 145; KCl, 3; glucose, 15; HEPES, 10; MgCl2, 0.8-1.2; CaCl2, 1.2; 0.005 glycine (Sigma), 0.05 picrotoxin (Sigma); pH adjusted to 7.4 with NaOH. MgCl2 concentration was matched to its concentration in culture medium. In experiments where effects of drugs on neuronal activity were quantified (FIG. 4D), recordings were done in culture medium (with HEPES replacing bicarbonate/CO2 to maintain pH). All experiments were performed at room temperature. For assaying synaptic connectivity, each neuron was stimulated by 1 ms step depolarization from −70 to +30 mV in voltage-clamp mode. Only neurons with monosynaptic connections were used. […] Recordings with access resistance>20 MΩ or that varied substantially were rejected from analysis.
We hypothesized that one target may be the number and properties of NMDA receptors at individual synapses.

[3] = rat, in vivo
Experimental: Determination of [Mg^++] in CSF. Total Mg^++ levels in CSF in control and Mg^++-treated rats were determined by a colorimetric method with xylidyl blue (Anilytics Incorporated, MD) (Thomas, L. (1998). Clinical Laboratory diagnostics. 1st ed. Francfurt: TH-Books Verlagsgesellschaft, 231-41.)
Behavior test: Novel object recognition. The subjects were 20 experimentally naive, female, Sprague-Dawley rats (Charles River), 1 year old at the beginning of the experiment. They were housed two per cage with continuous access to food and water under a 12:12 light-dark cycle, with light onset at 8:00 a.m. Rats in the Mg^++-treated group received drinking water containing 6 mg/kg/day MgCl2 for 4 months before experiments.
We noted that the extracellular concentration Mg^+ in the CSF of a normal human brain is about 1.2 mM, the same concentration at which we obtained the maximum synaptic plasticity in vitro (FIG. 8B). We tested whether increasing Mg^++ concentration might also lead to enhanced synaptic plasticity in rats in vivo. Since Mg^++ is an essential mineral, normally obtained only by ingestion, we added a low quantity of Mg^++ (˜6 mg/kg/day) to drinking water in attempt to raise CSF Mg^++ concentration. This amount was proportional to that recommended by the FDA as a daily food supplement for humans. Two groups of adult Sprague-Dawley rats (8 months) were used as experimental populations. […]

[4] = system: cultured hippocampal neurons; assay: control recordings of membrane potential, synaptic inputs and firing; format: cell-based, rat
Experimental: as §1

GluR1 = assay: quantitative Western blotting of hippocampal homogenate; format: in vivo, rat; details: rat, in vivo, 6 mg/kg/day
Experimental: (§2) Quantitative Western blotting. Samples of hippocampal homogenate (10 ug/sample) were resolved on polyacrylamide gels, transferred to PVDF, and probed with anti-NR1 (Chemicon), NR2A (Upstate) or NR2B (Santa Cruz Biotech), GluR1 (Chemicon), Synapsin1 (American Qualex), or PSD-95 (Upstate) antibody followed by the appropriate secondary antibody coupled to horseradish peroxidase (1:10,000, Santa Cruz Biotech) in Tris-buffered saline (pH 7.3) containing 5% dry milk and 0.1% Tween (BioRad). Visualization of immunoreactive bands was achieved by enhanced chemiluminescence (Perkin Elmer Biosciences) and captured on autoradiography film (Kodak Scientific). Standard curves, in which the amount of protein was varied systematically, were constructed to establish that we operated within the linear range of the chemiluminescence detection method. In addition, each immunoblot was exposed to autoradiography film multiple times (average 7; minimum 5) for varying duration to make sure we operated in the linear range of the film for each experiment. Digital images, produced by scanning films on a Epson 3200 Scanner (Epson) with Epson Scan Software (Epson), were quantified using GelPro Analyzer 3.1 software. The integrated optical density (IOD) of each immunoreactive band from hippocampal samples relative to baseline measured immediately above and below the band in the same lane, and normalized by the actin or neurofilament band also in the same lane. Group data (eight animals per group) are represented as the mean+/−SEM of the IOD of samples.

NR2B = assay: as above; format: in vivo, rat; details: rat, in vivo
Experimental: as §2

Sequence of NMDA receptors (NR2B-containing) (Q00960 27-1482, other chains not shown): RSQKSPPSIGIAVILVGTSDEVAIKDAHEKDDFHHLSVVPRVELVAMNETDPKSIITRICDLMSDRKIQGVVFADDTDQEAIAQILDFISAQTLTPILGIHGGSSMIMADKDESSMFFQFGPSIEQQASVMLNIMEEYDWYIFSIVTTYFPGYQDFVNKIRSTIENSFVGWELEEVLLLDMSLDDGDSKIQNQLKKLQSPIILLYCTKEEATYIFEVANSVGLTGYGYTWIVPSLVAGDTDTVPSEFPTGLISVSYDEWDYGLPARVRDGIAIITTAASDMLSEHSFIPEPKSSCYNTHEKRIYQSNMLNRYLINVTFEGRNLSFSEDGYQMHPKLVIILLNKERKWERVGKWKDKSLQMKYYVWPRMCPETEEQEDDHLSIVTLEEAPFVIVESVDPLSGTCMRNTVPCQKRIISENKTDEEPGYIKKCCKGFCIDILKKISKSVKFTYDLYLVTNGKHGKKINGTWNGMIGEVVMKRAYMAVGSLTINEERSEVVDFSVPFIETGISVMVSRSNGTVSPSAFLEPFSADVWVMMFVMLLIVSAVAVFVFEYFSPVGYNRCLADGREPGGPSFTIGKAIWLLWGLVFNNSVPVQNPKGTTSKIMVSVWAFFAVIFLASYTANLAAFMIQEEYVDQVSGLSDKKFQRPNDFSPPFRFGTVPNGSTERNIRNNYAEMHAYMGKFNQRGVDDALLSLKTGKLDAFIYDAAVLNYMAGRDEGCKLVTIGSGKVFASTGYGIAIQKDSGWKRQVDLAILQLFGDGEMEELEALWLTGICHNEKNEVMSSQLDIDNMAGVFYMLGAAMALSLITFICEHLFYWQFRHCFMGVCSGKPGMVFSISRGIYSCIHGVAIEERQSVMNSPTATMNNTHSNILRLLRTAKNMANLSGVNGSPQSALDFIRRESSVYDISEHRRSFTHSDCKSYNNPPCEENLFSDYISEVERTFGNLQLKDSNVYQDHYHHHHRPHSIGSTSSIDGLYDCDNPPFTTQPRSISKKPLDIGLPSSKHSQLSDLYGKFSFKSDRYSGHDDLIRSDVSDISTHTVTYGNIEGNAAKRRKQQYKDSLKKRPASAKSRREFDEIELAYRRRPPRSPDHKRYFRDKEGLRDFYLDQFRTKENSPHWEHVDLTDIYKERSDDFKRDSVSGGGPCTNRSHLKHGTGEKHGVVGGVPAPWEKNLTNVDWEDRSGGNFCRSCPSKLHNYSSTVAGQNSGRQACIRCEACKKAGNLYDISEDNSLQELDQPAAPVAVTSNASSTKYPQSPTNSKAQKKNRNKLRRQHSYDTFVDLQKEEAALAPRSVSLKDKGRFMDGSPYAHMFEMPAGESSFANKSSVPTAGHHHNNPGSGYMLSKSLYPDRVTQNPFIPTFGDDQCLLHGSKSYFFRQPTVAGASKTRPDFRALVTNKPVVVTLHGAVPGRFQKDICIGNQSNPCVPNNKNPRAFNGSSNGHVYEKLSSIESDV

Question: With [Mg+2] [Mg^++] as the compound, how does the “effect on NMDA current” value (NMDAR) read?
Answer: had no effect

Question: What about the “reduction (attenuation) of NMDA current” value (NMDAR) of the same compound?
Answer: ~60%

Question: What about the “reduction of EPSCNMDA amplitude” value (NMDAR) of the same compound?
Answer: 50%

Question: And the “size of outward EPSCNMDA” value (NMDAR)?
Answer: remained relatively unchanged

Question: What about the “reduction of Ca^2+ influx (ΔF/F)” value [1] of the same compound?
Answer: 57±5% and 54±7%

Question: And the “reduction of NMDA currents (EPSCNMDA amplitude)” value [1]?
Answer: 54±7% and 57±5%

Question: What about the “N/A ratio (GNMDA/GAMPA)” value [2] of the same compound?
Answer: increased significantly

Question: And the “change in EPSCNMDA decay” value [2]?
Answer: 2 fold

Question: And the “ifenprodil-sensitivity of EPSCNMDA in treated versus control cultures” value [2]?
Answer: much higher than in the controls

Question: What about the “increase of quantal charge transfer through NMDARs (QNMDA)” value [2] of the same compound?
Answer: 2.4 fold

Question: And the “increase in CSF [Mg]” value [3]?
Answer: approximately 0.13 mM

Question: And the “EPSC1.2/EPSC0.8, overall synaptic inputs during network activity” value [4]?
Answer: 1.03±0.1

Question: What about the “EPSP1.2/EPSP0.8, spontaneous miniature EPSPAMPAs” value [4] of the same compound?
Answer: 0.9±0.1

Question: What about the “change in average firing rates of neurons within cultured neural networks” value [4] of the same compound?
Answer: none of these treatments induces a significant change

Question: And the “increase in amount of GluR1” value (GluR1)?
Answer: approximately 60%

Question: What about the “increase in levels of NR2B protein” value (NR2B) of the same compound?
Answer: two-fold increase

Question: What about the “increase in amount of NR2B” value (NR2B; 6 mg/kg/day) of the same compound?
Answer: approximately 60%
